Experimental data from US20170291890A1 (Epizyme, Inc., priority 2014, published 2017).

target: T1, KDM5A (Homo sapiens, UniProt P29375); assay: KDM5A Assay (SAMDI mass spectrometry demethylase assay); format: biochemical; conditions: C-terminal FLAG-tagged KDM5A 1-1090; class symbols; read-out: 5A IC50
T1 construct: C-terminal FLAG-tagged KDM5A^1-1090 was purchased from BPS Biosciences; FLAG (C); purchased BPS Biosciences
T1 sequence (P29375 1-1090): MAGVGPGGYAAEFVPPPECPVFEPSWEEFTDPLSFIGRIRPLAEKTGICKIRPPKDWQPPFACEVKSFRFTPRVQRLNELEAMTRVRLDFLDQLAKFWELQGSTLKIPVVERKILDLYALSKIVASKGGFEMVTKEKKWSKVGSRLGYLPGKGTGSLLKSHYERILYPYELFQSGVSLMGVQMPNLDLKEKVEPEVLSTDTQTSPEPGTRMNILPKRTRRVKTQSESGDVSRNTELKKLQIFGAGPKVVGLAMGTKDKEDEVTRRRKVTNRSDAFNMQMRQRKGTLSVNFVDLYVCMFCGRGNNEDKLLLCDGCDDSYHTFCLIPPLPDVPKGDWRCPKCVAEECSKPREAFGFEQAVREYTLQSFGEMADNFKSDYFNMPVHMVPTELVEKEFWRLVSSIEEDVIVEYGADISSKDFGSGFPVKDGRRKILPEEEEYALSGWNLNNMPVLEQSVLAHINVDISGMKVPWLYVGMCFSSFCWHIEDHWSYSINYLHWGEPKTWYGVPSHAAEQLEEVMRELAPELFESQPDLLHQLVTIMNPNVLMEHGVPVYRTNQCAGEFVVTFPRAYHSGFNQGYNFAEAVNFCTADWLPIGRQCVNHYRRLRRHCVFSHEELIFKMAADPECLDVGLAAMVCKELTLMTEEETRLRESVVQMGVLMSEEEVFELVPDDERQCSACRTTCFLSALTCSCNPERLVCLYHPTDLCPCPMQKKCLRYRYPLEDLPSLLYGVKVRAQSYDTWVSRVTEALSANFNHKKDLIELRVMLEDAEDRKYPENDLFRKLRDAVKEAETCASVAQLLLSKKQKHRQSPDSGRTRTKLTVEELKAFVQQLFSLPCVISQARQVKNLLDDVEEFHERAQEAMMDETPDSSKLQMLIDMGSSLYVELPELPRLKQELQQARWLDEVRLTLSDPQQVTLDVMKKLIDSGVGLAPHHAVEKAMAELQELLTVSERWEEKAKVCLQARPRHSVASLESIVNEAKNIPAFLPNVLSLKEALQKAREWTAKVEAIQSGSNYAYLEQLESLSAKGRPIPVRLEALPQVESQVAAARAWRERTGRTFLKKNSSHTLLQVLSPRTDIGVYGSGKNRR
How it was run: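 FLAG-tagged KDM5A 1-1090 (20 nM) preincubated 30 min with compound in pH 8.0 HEPES buffer with ascorbate, Fe(II), TCEP, then reacted 150 min at 25 °C with H3K4me3 peptide (250 nM) and 2-oxoglutarate (15 μM). Formic acid-quenched; SAMDI-MS substrate/product AUC conversion; IC50 from dose-response.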

IC50 [nM]	SMILES
10000 to 100000	COC(=O)c1ccncc1Nc1cnn(C2CCN(C3CCC3)CC2)c1C [Compound 95, methyl 3-((1-(1-cyclobutylpiperidin-4-yl)-5-methyl-1H-pyrazol-4-yl)amino)isonicotinate]
1000 to 10000	Cc1c(Nc2cnccc2C(=O)O)cnn1C1CCN(CC2CC2)CC1 [Compound 90, 3-(1-(1-(cyclopropylmethyl)piperidin-4-yl)-5-methyl-1H-pyrazol-4-ylamino) isonicotinic acid]
1000 to 10000	O=C(O)c1ccncc1Nc1cc(-c2cccc(Cl)c2)n(C2CCC3(CC2)OCCO3)n1 [Compound 86, 3-((5-(3-chlorophenyl)-1-(1,4-dioxaspiro[4.5]decan-8-yl)-1H-pyrazol-3-yl)amino)isonicotinic acid]
100 to 1000	Cn1nc(Nc2cnccc2C(=O)O)cc1-c1ccccc1 [Compound 5]
100 to 1000	O=C(O)c1ccncc1Nc1nn(-c2ccccc2)cc1-c1ccncc1 [Compound 88, 3-((1-phenyl-4-(pyridin-4-yl)-1H-pyrazol-3-yl)amino) isonicotinic acid]
100 to 1000	Cc1nn(C2CCN(C3CCC3)CC2)cc1Nc1cnccc1C(=O)O [Compound 94, 3-(1-(1-cyclobutylpiperidin-4-yl)-3-methyl-1H-pyrazol-4-ylamino)isonicotinic acid]
10000 to 100000	COC(=O)c1ccncc1Nc1cn(C2CCN(C3CCC3)CC2)nc1C [Compound 93, methyl 3-((1-(1-cyclobutylpiperidin-4-yl)-3-methyl-1H-pyrazol-4-yl)amino)isonicotinate]
100 to 1000	Cc1nn(C2CCN(CC3CC3)CC2)cc1Nc1cnccc1C(=O)O [Compound 89, 3-(1-(1-(cyclopropylmethyl)piperidin-4-yl)-3-methyl-1H-pyrazol-4-ylamino)isonicotinic acid]
1000 to 10000	CCc1c(Nc2cnccc2C(=O)O)cnn1-c1ccccc1 [Compound 81, 3-((5-ethyl-1-phenyl-1H-pyrazol-4-yl)amino)isonicotinic acid]
1 to 100	Cc1ccc(-n2cc(Nc3cnccc3C(=O)O)c(C)n2)cc1 [Compound 82]
1000 to 10000	NC1CCC(n2nc(-c3cccc(Cl)c3)cc2Nc2cnccc2C(=O)O)CC1 (centres unmarked) [Compound 85, 3-((1-(4-aminocyclohexyl)-3-(3-chlorophenyl)-1H-pyrazol-5-yl)amino)isonicotinic acid]
100 to 1000	Cc1nn(C2CCN(C3CN(C)C3)CC2)cc1Nc1cnccc1C(=O)O [Compound 91, 3-(3-methyl-1-(1-(1-methylazetidin-3-yl)piperidin-4-yl)-1H-pyrazol-4-ylamino)isonicotinic acid]
1000 to 10000	NC1CCC(n2nc(Nc3cnccc3C(=O)O)cc2-c2cccc(Cl)c2)CC1 (centres unmarked) [Compound 87, 3-((1-(4-aminocyclohexyl)-5-(3-chlorophenyl)-1H-pyrazol-3-yl)amino)isonicotinic acid]
1 to 100	Cc1nn([C@H]2CC[C@@H](N)CC2)cc1Nc1cnccc1C(=O)O [Compound 80, 3-((1-((cis)-4-aminocyclohexyl)-3-methyl-1H-pyrazol-4-yl)amino)isonicotinic acid]
1000 to 10000	Cc1c(Nc2cnccc2C(=O)O)cnn1C1CCN(C2CN(C)C2)CC1 [Compound 92, 3-(5-methyl-1-(1-(1-methylazetidin-3-yl)piperidin-4-yl)-1H-pyrazol-4-ylamino)isonicotinic acid]
1000 to 10000	CN1CCC(n2ncc(Nc3cnccc3C(=O)O)c2-c2ccccc2)CC1 [Compound 126, 3-(1-(1-methylpiperidin-4-yl)-5-phenyl-1H-pyrazol-4-ylamino) isonicotinic acid]

same assay, conditions: C-terminal FLAG-tagged KDM5A 1-1090; numeric bound; read-out: 5A IC50

IC50 [nM]	SMILES
> 100000	Cn1ncc(-c2cccnc2)c1Nc1cnccc1C(=O)O [Compound 4]
